Experimental data as given in PMC4790851, “Iminosugars Inhibit Dengue Virus Production via Inhibition of ER Alpha-Glucosidases—Not Glycolipid Processing Enzymes” (PLoS Neglected Tropical Diseases, 2016).
Entries after “also recorded” stand apart in the source; their conditions may differ.

How the values were obtained:
[1] = biological target: T1, Glucosyltransferase HL60 (Homo sapiens, UniProt Q16739); test: In vitro enzyme inhibition; type: biochemical; conditions: glucosyltransferase isolated from HL60 human promyelocytic cell line; read-out: IC50
T1 construct: endogenous in cells; host or cells: HL60
T1 sequence (Q16739 1-394): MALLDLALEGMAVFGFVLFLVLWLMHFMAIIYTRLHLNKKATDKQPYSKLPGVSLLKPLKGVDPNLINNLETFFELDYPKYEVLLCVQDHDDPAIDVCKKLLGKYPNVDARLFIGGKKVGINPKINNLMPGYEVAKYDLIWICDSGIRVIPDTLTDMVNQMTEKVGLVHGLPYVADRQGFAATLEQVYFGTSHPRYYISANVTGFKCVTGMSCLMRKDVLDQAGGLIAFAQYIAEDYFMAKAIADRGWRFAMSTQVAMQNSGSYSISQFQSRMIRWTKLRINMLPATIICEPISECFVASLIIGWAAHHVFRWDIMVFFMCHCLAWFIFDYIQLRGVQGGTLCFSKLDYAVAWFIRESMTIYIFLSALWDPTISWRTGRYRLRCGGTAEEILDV

[2] = system: DENV2 D2S10; test: Lethal mouse model of antibody-enhanced DENV infection; type: in vivo, AG129 mice; conditions: 33.3 mg/kg/dose t.i.d. p.o.
Description: Virus titers of samples isolated from infected mice were obtained by BHK-21 plaque assays in accordance with previous protocols. BHK-21 cells were seeded in 12-well plates (3 x 10^5 cells/well) in α-MEM medium containing 5% HI-FBS for 3 hours (37°C, 5% CO2). Medium was removed, log10 serial dilutions of virus in α-MEM with 2% HI-FBS were added, and cells were incubated for an additional 2 hours (37°C, 5% CO2). Following incubation, 1.5 ml of α-MEM containing 5% (v/v) HI-FBS and 1% (w/v) low-melting point tissue culture grade agarose (Sigma) was added to each well and allowed to solidify at room temperature before further incubation (37°C, 5% CO2) for 5 days. Plaques were visualised after fixation in 10% formaldehyde (1 hour, room temperature) and removal of the agarose plug by staining briefly (approximately 30 seconds) with 1% (w/v) crystal violet (Sigma) in 20% (v/v) ethanol (EtOH, Sigma). Concentrations were normalised to tissue mass (in grams) or serum volume (in ml) as appropriate.
For animal experiments, multiplex qRT-PCR was conducted on all tissue isolates and plasma as described for in vitro experiments. Rodent glyceraldehyde 3-phosphate dehydrogenase (GAPDH) control (Life Technologies #4308313) containing a VIC reporter dye was attached to a TAMRA (tetramethylrhodamine) quencher, and experimental DENV NS5-specific target was labelled with FAM (6-fluorescein amidite) reporter dyes with a TAMRA quencher. GAPDH primers were used at 10 μM and probe at 20 μM. In the case of DENV qRT-PCR, quantitation using a DENV2-specific primer/probe set directed to NS5 was conducted using all primers and probe at 10 μM final concentration. Thermocycling was conducted as for in vitro experiments. Viral RNA from tissues was quantified by ΔΔCt method, whereas plasma samples were quantified relative to a standard curve as for in vitro experiments. Samples were read in technical duplicate and 95% confidence intervals were determined based on biological and technical variation and graphed using Prism 6 (GraphPad Software, Inc.).
All experimental procedures were pre-approved by the UC Berkeley Animal Care and Use Committee and were performed according to the guidelines of the UC Berkeley Animal Care and Use Committee, the United States Public Health Service, and the USDA Animal Welfare Act. Mice of the 129/Sv background deficient in interferon (IFN)-α/β and -γ receptors (AG129 mice) were infected with DENV under antibody-enhanced conditions as previously described. Mice were primed 24 hours prior to infection with a 5 μg intraperitoneal (i.p.) injection of a pan-flavivirus monoclonal antibody against E protein, 4G2. At t = 0, 10^5 pfu of DENV2 D2S10 was injected intravenously. […]

[3] = system: DENV; parameters: method as in PMID 22020302; conditions: BHK-21 (hamster kidney) cell culture model; cited from earlier work
[4] = system: dengue infection; parameters: method as in PMID 24877997, PMID 12355369; conditions: oral, 400 mg loading dose then 200 mg/dose b.i.d.; cited from earlier work
[5] = serum at 80 h post-infection, AG129 mice, listed as celgosivir

Compound: CCCC(=O)O[C@H]1CN2CC[C@H](O)[C@@H]2[C@@H](O)[C@@H]1O [Celgosivir, 6-O-butanoyl-castanospermine]
- IC50 [1]: > 1000 µM
- viral RNA levels in spleen ([2]; 80 h post-infection, qRT-PCR normalized to GAPDH): enhanced viral RNA levels by approximately two orders of magnitude
- infectious virus level in serum (BHK-21 plaque assay) ([2]; serum at 80 h post-infection, AG129 mice): reduced the average viral titer, but the differences were not statistically significant
- circulating viral load (viral RNA, qRT-PCR) [2, 5]: significantly reduced; also recorded: statistically significant reduction in viral RNA load
- infectious virus level in serum (BHK-21 plaque assay) [2, 5]: not statistically significant
- enhancement of antiviral efficacy over castanospermine [3]: ~ 100 fold
- reduction in viral load or fever burden in patients [4]: failed to demonstrate reduction in viral load or fever burden
